The target in the test is ROCK2 (Homo sapiens, UniProt O75116). The test is described as follows: ROCK assay: phosphorylation of FITC peptide substrate, LABCHIP 3000 mobility shift. The format is biochemical. As to conditions: 5 μM ATP, 1.5 μM peptide substrate; read-out: ROCK2 Activity (ROCK IC50 range). In a few lines:
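Rho kinase variant phosphorylates 1.5 μM FITC-AHA-AKRRRLSSLRA-OH with 5 μM ATP in 20 mM HEPES pH 7.5, 20 mM MgCl2, 0.015% Brij-35, 4 mM DTT, DMSO <2%. EDTA stops the reaction, and phospho and non-phospho peptides are resolved by LabChip 3000 mobility shift. IC50 from dose-response curve fit.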

From patent US9902702B2, “Spirocycloheptanes as inhibitors of rock” (BRISTOL-MYERS SQUIBB COMPANY, priority 2014, dated 2018) come the findings set out here.

Structures are written as SMILES. pIC50: −log10 of the molar value.

ROCK2, sequence (O75116 whole entry, species assumed): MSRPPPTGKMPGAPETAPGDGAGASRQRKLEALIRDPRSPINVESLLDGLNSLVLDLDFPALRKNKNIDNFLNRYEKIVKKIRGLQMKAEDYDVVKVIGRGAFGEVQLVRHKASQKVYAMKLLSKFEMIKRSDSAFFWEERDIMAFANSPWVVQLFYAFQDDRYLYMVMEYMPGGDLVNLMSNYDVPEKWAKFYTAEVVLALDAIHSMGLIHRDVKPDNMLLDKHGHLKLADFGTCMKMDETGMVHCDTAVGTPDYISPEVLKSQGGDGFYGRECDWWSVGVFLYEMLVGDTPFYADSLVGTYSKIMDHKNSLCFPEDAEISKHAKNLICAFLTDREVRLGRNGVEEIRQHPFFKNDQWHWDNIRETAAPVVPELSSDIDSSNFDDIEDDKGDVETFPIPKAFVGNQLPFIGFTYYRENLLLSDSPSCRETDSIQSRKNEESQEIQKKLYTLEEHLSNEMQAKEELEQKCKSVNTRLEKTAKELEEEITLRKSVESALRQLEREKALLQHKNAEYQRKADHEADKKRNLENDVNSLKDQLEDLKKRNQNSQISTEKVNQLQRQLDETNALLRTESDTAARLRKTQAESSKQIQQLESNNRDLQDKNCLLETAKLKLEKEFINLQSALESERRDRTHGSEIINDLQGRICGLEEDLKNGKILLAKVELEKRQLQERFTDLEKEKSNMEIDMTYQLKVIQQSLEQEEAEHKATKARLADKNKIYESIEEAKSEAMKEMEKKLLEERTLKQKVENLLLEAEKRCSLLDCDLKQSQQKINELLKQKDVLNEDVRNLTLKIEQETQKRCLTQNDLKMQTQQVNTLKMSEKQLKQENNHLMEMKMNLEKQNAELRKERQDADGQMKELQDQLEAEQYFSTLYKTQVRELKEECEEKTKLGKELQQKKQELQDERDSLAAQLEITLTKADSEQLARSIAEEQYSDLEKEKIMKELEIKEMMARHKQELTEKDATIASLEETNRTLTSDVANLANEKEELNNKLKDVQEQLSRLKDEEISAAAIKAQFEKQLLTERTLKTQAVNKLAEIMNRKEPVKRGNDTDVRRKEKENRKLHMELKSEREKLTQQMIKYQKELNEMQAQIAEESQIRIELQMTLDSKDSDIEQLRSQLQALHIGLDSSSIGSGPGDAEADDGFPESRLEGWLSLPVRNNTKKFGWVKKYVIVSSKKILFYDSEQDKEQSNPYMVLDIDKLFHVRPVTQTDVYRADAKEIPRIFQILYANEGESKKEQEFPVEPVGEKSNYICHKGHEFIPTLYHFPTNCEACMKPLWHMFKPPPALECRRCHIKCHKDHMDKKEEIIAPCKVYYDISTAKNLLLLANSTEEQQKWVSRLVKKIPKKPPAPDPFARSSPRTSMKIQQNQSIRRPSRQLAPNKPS

One may read the pIC50 as the negative decadic logarithm of the IC50, by convention in mol/L. `O=C(NC1CC2(C1)CC(c1n[nH]c(=O)c3ccccc13)C2)c1cnn2cc(-c3cnn(C4CCOCC4)c3)ccc12` [Example 222, N-((aR)-6-(4-oxo-3,4-dihydrophthalazin-1-yl)spiro[3.3]heptan-2-yl)-6-(1-(tetrahydro-2H-pyran-4-yl)-1H-pyrazol-4-yl)pyrazolo[1,5-a]pyridine-3-carboxamide]: the pIC50 was 8.70 to 9.70.
The same measure for `Cn1cc(-c2ccc3c(C(=O)NC4CC5(C4)CC(c4n[nH]c(=O)c6ccccc46)C5)cnn3c2)c(C(F)(F)F)n1` [Example 223, 6-(1-methyl-3-(trifluoromethyl)-1H-pyrazol-4-yl)-N-((aR)-6-(4-oxo-3,4-dihydrophthalazin-1-yl)spiro[3.3]heptan-2-yl)pyrazolo[1,5-a]pyridine-3-carboxamide]: 8.70 to 9.70; for `CC(C)n1cc(-c2ccc3c(C(=O)NC4CC5(C4)CC(c4n[nH]c(=O)c6ccccc46)C5)cnn3c2)c(C(F)(F)F)n1` [Example 224, 6-(1-isopropyl-3-(trifluoromethyl)-1H-pyrazol-4-yl)-N-((aR)-6-(4-oxo-3,4-dihydrophthalazin-1-yl)spiro[3.3]heptan-2-yl)pyrazolo[1,5-a]pyridine-3-carboxamide]: 8.70 to 9.70; for `CC(C)(C)n1cc(-c2ccc3c(C(=O)NC4CC5(C4)CC(c4n[nH]c(=O)c6ccccc46)C5)cnn3c2)cn1` [Example 225, 6-(1-(tert-butyl)-1H-pyrazol-4-yl)-N-((aR)-6-(4-oxo-3,4-dihydrophthalazin-1-yl)spiro[3.3]heptan-2-yl)pyrazolo[1,5-a]pyridine-3-carboxamide]: 8.70 to 9.70.
Turning to `O=C(NC1CC2(C1)CC(c1n[nH]c(=O)c3ccccc13)C2)c1cnn2cc(-c3cnn(C4CCOC4)c3)ccc12` [Example 226, N-((aR)-6-(4-oxo-3,4-dihydrophthalazin-1-yl)spiro[3.3]heptan-2-yl)-6-(1-(tetrahydrofuran-3-yl)-1H-pyrazol-4-yl)pyrazolo[1,5-a]pyridine-3-carboxamide], the pIC50 is 8.70 to 9.70.
The same measure for `O=C(Nc1ccc(Br)cc1)N[C@H]1CC2(C1)C[C@H](c1n[nH]c(=O)c3ccccc31)C2` (stereo partly drawn) [Example 227, 1-(4-bromophenyl)-3-((aR)-6-(4-oxo-3,4-dihydrophthalazin-1-yl)spiro[3.3]heptan-2-yl)urea]: 7.00 to 7.82.
Take `Cn1cc(-c2ccc(NC(=O)NC3CC4(C3)CC(c3n[nH]c(=O)c5ccccc35)C4)cc2)cn1` [Example 228, 1-(4-(1-methyl-1H-pyrazol-4-yl)phenyl)-3-((aR)-6-(4-oxo-3,4-dihydrophthalazin-1-yl)spiro[3.3]heptan-2-yl)urea]: the pIC50 was 7.82 to 8.29.
The figure for `[2H]C([2H])([2H])n1cc(-c2ccc(NC(=O)NC3CC4(C3)CC(c3n[nH]c(=O)c5ccccc35)C4)cc2)cn1` [Example 229, 1-(4-(1-(^2H3)methyl-1H-pyrazol-4-yl)phenyl)-3-((aR)-6-(4-oxo-3,4-dihydrophthalazin-1-yl)spiro[3.3]heptan-2-yl)urea] is 7.82 to 8.29.
The same measure for `O=C(Nc1ccc(-c2cnn(C3CC3)c2)cc1)NC1CC2(C1)CC(c1n[nH]c(=O)c3ccccc13)C2` [Example 230, 1-(4-(1-cyclopropyl-1H-pyrazol-4-yl)phenyl)-3-((aR)-6-(4-oxo-3,4-dihydrophthalazin-1-yl)spiro[3.3]heptan-2-yl)urea]: 7.00 to 7.82; for `O=C(Nc1ccc(-c2cnn(C3CCOCC3)c2)cc1)NC1CC2(C1)CC(c1n[nH]c(=O)c3ccccc13)C2` [Example 231, 1-((aR)-6-(4-oxo-3,4-dihydrophthalazin-1-yl)spiro[3.3]heptan-2-yl)-3-(4-(1-(tetrahydro-2H-pyran-4-yl)-1H-pyrazol-4-yl)phenyl)urea]: 7.00 to 7.82.
As to `Cn1cc(-c2ccc(NC(=O)NC3CC4(C3)CC(c3n[nH]c(=O)c5ccccc35)C4)cc2)c(C(F)(F)F)n1` [Example 232, 1-(4-(1-methyl-3-(trifluoromethyl)-1H-pyrazol-4-yl)phenyl)-3-((aR)-6-(4-oxo-3,4-dihydrophthalazin-1-yl)spiro[3.3]heptan-2-yl)urea], the pIC50 is 7.82 to 8.29.
The figure for `Cc1nn(C)c(C)c1-c1ccc(NC(=O)NC2CC3(C2)CC(c2n[nH]c(=O)c4ccccc24)C3)cc1` [Example 233, 1-((aR)-6-(4-oxo-3,4-dihydrophthalazin-1-yl)spiro[3.3]heptan-2-yl)-3-(4-(1,3,5-trimethyl-1H-pyrazol-4-yl)phenyl)urea] is 7.82 to 8.29.
On to `O=C(N[C@H]1CC2(C1)C[C@H](c1n[nH]c(=O)c3ccccc31)C2)N1CCc2cc(Br)ccc21` (stereo partly drawn) [Example 234, 5-Bromo-N-((aR)-6-(4-oxo-3,4-dihydrophthalazin-1-yl)spiro[3.3]heptan-2-yl)indoline-1-carboxamide], for which the pIC50 was 8.30 to 8.70.
As to `Cn1cc(-c2ccc3c(c2)CCN3C(=O)NC2CC3(C2)CC(c2n[nH]c(=O)c4ccccc24)C3)cn1` [Example 235, 5-(1-methyl-1H-pyrazol-4-yl)-N-((aR)-6-(4-oxo-3,4-dihydrophthalazin-1-yl)spiro[3.3]heptan-2-yl)indoline-1-carboxamide], the pIC50 was 8.70 to 9.70.
The same measure for `O=C(NC1CC2(C1)CC(c1n[nH]c(=O)c3ccccc13)C2)N1CCc2cc(-c3cnn(C4CC4)c3)ccc21` [Example 236, 5-(1-cyclopropyl-1H-pyrazol-4-yl)-N-((aR)-6-(4-oxo-3,4-dihydrophthalazin-1-yl)spiro[3.3]heptan-2-yl)indoline-1-carboxamide]: 8.70 to 9.70.
The same measure for `Cc1nn(C)c(C)c1-c1ccc2c(c1)CCN2C(=O)NC1CC2(C1)CC(c1n[nH]c(=O)c3ccccc13)C2` [Example 237, N-((aR)-6-(4-oxo-3,4-dihydrophthalazin-1-yl)spiro[3.3]heptan-2-yl)-5-(1,3,5-trimethyl-1H-pyrazol-4-yl)indoline-1-carboxamide]: 8.30 to 8.70; for `Cn1cc(-c2ccc3c(c2)CCN3C(=O)NC2CC3(C2)CC(c2n[nH]c(=O)c4ccccc24)C3)c(C(F)(F)F)n1` [Example 238, 5-(1-methyl-3-(trifluoromethyl)-1H-pyrazol-4-yl)-N-((aR)-6-(4-oxo-3,4-dihydrophthalazin-1-yl)spiro[3.3]heptan-2-yl)indoline-1-carboxamide]: 8.30 to 8.70.
`[2H]C([2H])([2H])n1cc(-c2ccc3c(c2)CCN3C(=O)NC2CC3(C2)CC(c2n[nH]c(=O)c4ccccc24)C3)cn1` [Example 239, 5-(1-(^2H3)methyl-1H-pyrazol-4-yl)-N-((aR)-6-(4-oxo-3,4-dihydrophthalazin-1-yl)spiro[3.3]heptan-2 yl)indoline-1-carboxamide]: the pIC50 is 8.70 to 9.70.
The same measure for `O=C(NC1CC2(C1)CC(c1n[nH]c(=O)c3ccccc13)C2)N1CCc2cc(-c3cnn(C4CCOCC4)c3)ccc21` [Example 240, N-((aR)-6-(4-oxo-3,4-dihydrophthalazin-1-yl)spiro[3.3]heptan-2-yl)-5-(1-(tetrahydro-2H-pyran-4-yl)-1H-pyrazol-4-yl)indoline-1-carboxamide]: 8.30 to 8.70; for `O=C(NC1CC2(C1)CC(c1n[nH]c(=O)c3ccccc13)C2)N1CCc2cc(-c3cnn(CC4CC4)c3)ccc21` [Example 241, 5-(1-(cyclopropylmethyl)-1H-pyrazol-4-yl)-N-((aR)-6-(4-oxo-3,4-dihydrophthalazin-1-yl)spiro[3.3]heptan-2-yl)indoline-1-carboxamide]: 8.30 to 8.70.
`CC(C)(C)n1cc(-c2ccc3c(c2)CCN3C(=O)NC2CC3(C2)CC(c2n[nH]c(=O)c4ccccc24)C3)cn1` [Example 242, 5-(1-(tert-butyl)-1H-pyrazol-4-yl)-N-((aR)-6-(4-oxo-3,4-dihydrophthalazin-1-yl)spiro[3.3]heptan-2-yl)indoline-1-carboxamide]: the pIC50 is 8.30 to 8.70.
The figure for `O=C(NC1CC2(C1)CC(c1n[nH]c(=O)c3ccccc13)C2)N1CCc2cc(-c3cnn(C4CCOC4)c3)ccc21` [Example 243, N-((aR)-6-(4-oxo-3,4-dihydrophthalazin-1-yl)spiro[3.3]heptan-2-yl)-5-(1-(tetrahydrofuran-3-yl)-1H-pyrazol-4-yl)indoline-1-carboxamide] is 8.30 to 8.70; for `CC(C)n1cc(-c2ccc3c(c2)CCN3C(=O)NC2CC3(C2)CC(c2n[nH]c(=O)c4ccccc24)C3)c(C(F)(F)F)n1` [Example 244, 5-(1-isopropyl-3-(trifluoromethyl)-1H-pyrazol-4-yl)-N-((aR)-6-(4-oxo-3,4-dihydrophthalazin-1-yl)spiro[3.3]heptan-2-yl)indoline-1-carboxamide] it is 7.82 to 8.29.
For the compound `O=C(NC1CC2(C1)CC(c1n[nH]c(=O)c3ccccc13)C2)N1CCc2cc(CCC(F)(F)F)ccc21` [Example 245, N-((aR)-6-(4-oxo-3,4-dihydrophthalazin-1-yl)spiro[3.3]heptan-2-yl)-5-(3,3,3-trifluoropropyl)indoline-1-carboxamide], the pIC50 was 7.82 to 8.29.
As to `Cc1nn(C)c(C)c1-c1ccc2c(c1)CN(C(=O)NC1CC3(C1)CC(c1n[nH]c(=O)c4ccccc14)C3)C2` [Example 246, N-((aR)-6-(4-oxo-3,4-dihydrophthalazin-1-yl)spiro[3.3]heptan-2-yl)-5-(1,3,5-trimethyl-1H-pyrazol-4-yl)isoindoline-2-carboxamide], the pIC50 was 8.30 to 8.70.
The figure for `O=C(NC1CC2(C1)CC(c1n[nH]c(=O)c3ccccc13)C2)N1Cc2ccc(-c3cnn(C4CC4)c3)cc2C1` [Example 247, 5-(1-cyclopropyl-1H-pyrazol-4-yl)-N-((aR)-6-(4-oxo-3,4-dihydrophthalazin-1-yl)spiro[3.3]heptan-2-yl)isoindoline-2-carboxamide] is 8.30 to 8.70; for `Cn1cc(-c2ccc3c(c2)CN(C(=O)NC2CC4(C2)CC(c2n[nH]c(=O)c5ccccc25)C4)C3)c(C(F)(F)F)n1` [Example 248, 5-(1-methyl-3-(trifluoromethyl)-1H-pyrazol-4-yl)-N-((aR)-6-(4-oxo-3,4-dihydrophthalazin-1-yl)spiro[3.3]heptan-2-yl)isoindoline-2-carboxamide] it is 7.82 to 8.29.
